Assay results from PubChem BioAssay (NCI).
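Cells were grown in 96-well plates and exposed to each compound for 48 hours at five concentrations; endpoints were interpolated linearly between bracketing concentrations, or set to the highest concentration if not reached. At the GI50, growth is halved. TGI: concentration producing complete growth inhibition.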

Tests used:
Assay in all cases: NCI anticancer screen, dose series, 48 h
[1] = system: EKVX NSCLC
[2] = system: OVCAR-3 ovarian
[3] = system: SNB-75 CNS
[4] = system: UO-31 renal
[5] = system: HOP-62 NSCLC
[6] = system: HOP-92 NSCLC
[7] = system: LOX IMVI melanoma
[8] = system: RXF 393 renal
[9] = system: T-47D breast
[10] = system: CCRF-CEM leukemia

| SMILES | GI50 [1] | TGI [1] | GI50 [2] | TGI [2] | GI50 [3] | TGI [3] | GI50 [4] | TGI [4] | TGI [5] | TGI [6] | TGI [7] | TGI [8] | TGI [9] | TGI [10] |
| --- | --- | --- | --- | --- | --- | --- | --- | --- | --- | --- | --- | --- | --- | --- |
| Cn1cc(-c2nc(-c3c[nH]c4ccncc34)cs2)c2ccccc21 | 1.64 µM | 3.36 µM | 1.69 µM | 3.09 µM | 1.29 µM | 2.61 µM | 1.38 µM | 2.69 µM |  |  |  |  |  |  |
| CCCCOc1c(C(=O)O)cc(Br)cc1C(=O)O |  | > 100 µM |  | > 100 µM |  | > 100 µM |  | > 100 µM | > 100 µM | > 100 µM | > 100 µM | > 100 µM | > 100 µM |  |
| Cc1nc(N)sc1C(=O)Nc1ncn[nH]1 |  | > 100 µM |  | > 100 µM |  |  |  | > 100 µM | > 100 µM | > 100 µM | > 100 µM | > 100 µM | > 100 µM |  |
| N=S(=O)(c1ccccc1)c1ccccc1 |  | > 100 µM |  | > 100 µM |  | > 100 µM |  | > 100 µM | > 100 µM |  | > 100 µM |  |  | > 100 µM |
| CCCCCCCCCCCCCCCCNCC(O)CN (stereo unspecified) |  | 44.6 µM |  | 6.52 µM |  | 11 µM |  | 25.3 µM | 33.4 µM | 9.36 µM | 3.45 µM | 8.16 µM |  | 3.72 µM |
| Nc1ncnc2c1ncn2CCCC(c1ccccc1)P(=O)(O)O (stereo unspecified) |  | > 100 µM |  | > 100 µM |  | > 100 µM |  | > 100 µM |  |  | > 100 µM | > 100 µM |  |  |
| CC(C)NCC(O)c1ccc(O)c2ncccc12 (stereo unspecified) |  | > 100 µM |  | 55 µM |  | > 100 µM |  | > 100 µM | > 100 µM | > 100 µM | > 100 µM | > 100 µM | > 100 µM |  |
| N#C/C=c1/c2ccccc2n2nc3ccccc3c12 |  | > 100 µM |  | > 100 µM |  |  |  | > 100 µM | 44.4 µM |  | > 100 µM | 58.6 µM | > 100 µM | > 100 µM |
| COC(=O)[C@H]1[C@@H](O)[C@@]2(O)c3c(OC)cc(OC)cc3O[C@@]2(c2ccc3c(c2)OCO3)[C@@H]1c1ccccc1 |  | > 33.3 µM |  | 2.8 µM |  |  |  | 0.0223 µM | 0.68 µM | > 50 µM | 0.014 µM |  | > 10.8 µM | > 50 µM |
| COC(=O)[C@@H]1[C@H](O)CCC2=C(CC(=O)c3ccoc3)[C@H](C)CC[C@]21C |  | > 50 µM |  | > 50 µM |  | > 50 µM |  | > 50 µM | > 50 µM | > 50 µM | > 50 µM | > 50 µM |  |  |
| CSc1c2c(C)n[nH]c2nn1-c1ccccc1 |  | > 100 µM |  | > 100 µM |  | > 100 µM |  | > 100 µM |  |  | > 100 µM | > 100 µM | > 100 µM | > 100 µM |
| CCOC(=O)C1(C#N)C2(C#N)C(N)=NC(ON=C(C)C)(ON=C(C)C)C12C#N (stereo unspecified) |  | > 100 µM |  |  |  |  |  | > 100 µM | > 100 µM | > 100 µM | > 100 µM | > 100 µM | > 100 µM | > 100 µM |
